A word on the IC50: it is the point on the concentration scale where inhibition reaches its midpoint. One may read the Ki as a dissociation constant, usually derived from enzyme kinetics or from competition with a known ligand. The Km is the concentration of substrate that gives half-maximal velocity.

This note sets out measurements from ChEMBL document CHEMBL1144965, “A series of 2(Z)-2-benzylidene-6,7-dihydroxybenzofuran-3[2H]-ones as inhibitors of chorismate synthase” (Bioorg Med Chem Lett, 2003).

Data set [1] has as its target T1, Chorismate synthase (Streptococcus pneumoniae serotype 4 (strain ATCC BAA-334 / TIGR4), UniProt P0A2Y6).
T1 sequence (P0A2Y6 whole entry): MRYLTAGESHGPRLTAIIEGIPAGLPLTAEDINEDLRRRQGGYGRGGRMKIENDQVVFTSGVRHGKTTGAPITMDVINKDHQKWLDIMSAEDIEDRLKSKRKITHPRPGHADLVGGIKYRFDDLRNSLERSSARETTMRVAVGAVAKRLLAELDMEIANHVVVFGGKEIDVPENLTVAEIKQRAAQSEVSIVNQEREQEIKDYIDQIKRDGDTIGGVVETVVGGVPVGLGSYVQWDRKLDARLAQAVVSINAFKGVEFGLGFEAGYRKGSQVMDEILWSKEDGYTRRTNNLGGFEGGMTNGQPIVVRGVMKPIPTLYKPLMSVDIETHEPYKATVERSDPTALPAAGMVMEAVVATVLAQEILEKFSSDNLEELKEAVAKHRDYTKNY
The data set is described as follows: Inhibitory concentration against Streptococcus pneumoniae chorismate synthase.

The nature of data set [2]: (§1) Non-competitive inhibitory activity with respect to cofactor FMN.
For data set [3], the target named is Chorismate synthase (Streptococcus pneumoniae). In words: Competitive inhibitory activity with respect to EPSP (5-enolpyruvyl-shikimate- 3-phosphate) at chorismate synthase.
Data set [4] in a line: as §1. The source holds these as a separate data set.
Data set [5] addresses T1, Chorismate synthase. In words: Inhibitory concentration against Streptococcus pneumoniae chorismate synthase; Not active.
Substrate in data set [6]: CCN(CC)c1ccc(/C=C2/Oc3c(ccc(O)c3O)C2=O)cc1
Description: Michaelis-Menten constant for EPSP (5-enolpyruvyl-shikimate- 3-phosphate) synthase was evaluated

A value given as a limit tells only on which side of the number the result lay.

On to `O=C1/C(=C\c2ccc(OCCCCCCO)cc2O)Oc2c1ccc(O)c2O`, for which 1600 nM corresponded to half-maximal inhibition in data set [1] (IC50).

`CCOC(=O)CCCOc1ccc(/C=C2/Oc3c(ccc(O)c3O)C2=O)c(O)c1` had an IC50 in data set [1] of 650 nM. This IC50 lies about 2.5-fold lower than the previous one.

Molecule `O=C1/C(=C\c2ccc(C(F)(F)F)cc2)Oc2c1ccc(O)c2O` registered an IC50 in data set [1] of 7000 nM.

Regarding `CCN(CC)c1ccc(/C=C2/Oc3c(ccc(O)c3O)C2=O)cc1`, in data set [2], the Ki came to 1700 nM.

`O=C1/C(=C\c2ccccc2)Oc2c1ccc(O)c2O` had an IC50 in data set [1] of 3500 nM.

Regarding `COc1ccc(/C=C2/Oc3c(ccc(O)c3O)C2=O)c(O)c1`, the results for the Ki in data set [3] and in data set [4] were 100 nM and 1400 nM, respectively. For the same molecule, in data set [1], the IC50 was found to be 700 nM.

Molecule `O=C1/C(=C\c2ccccc2Cl)Oc2c1ccc(O)c2O` registered an IC50 in data set [1] of 5200 nM.

Regarding `O=C(O)CCCOc1ccc(/C=C2/Oc3c(ccc(O)c3O)C2=O)c(O)c1`, inhibition in data set [1] was half-maximal at 1100 nM (IC50).

Regarding `CC(C)Oc1ccc(/C=C2/Oc3c(ccc(O)c3O)C2=O)c(O)c1`, the IC50 in data set [1] was determined as 1000 nM.

In turn, `O=C1/C(=C\c2ccc(N3CCOCC3)cc2)Oc2c1ccc(O)c2O` registered an IC50 in data set [1] greater than 50000 nM.

As to `O=C1/C(=C\c2ccc(-n3ccnc3)cc2)Oc2c1ccc(O)c2O`, the IC50 in data set [1] turned out to be 5100 nM.

`CCN(CC)c1ccc(/C=C2/Oc3c(ccc(O)c3O)C2=O)c(O)c1` registered an IC50 in data set [1] of 5000 nM.

In data set [1], `O=C1/C(=C\c2ccc([N+](=O)[O-])cc2)Oc2c1ccc(O)c2O` returned an IC50 of 4800 nM.

In turn, `CCN(CCO)c1ccc(/C=C2/Oc3c(ccc(O)c3O)C2=O)c(C)c1` gave an IC50 in data set [1] of 3400 nM.

In turn, `O=C1/C(=C\c2ccc(N3CCCC3)cc2)Oc2c1ccc(O)c2O` returned an IC50 in data set [1] of 5500 nM.

In data set [1], `CCOC(=O)COc1ccc(/C=C2/Oc3c(ccc(O)c3O)C2=O)c(O)c1` had an IC50 of 10300 nM. Compared with the last molecule, the IC50 is about 1.9-fold higher.

The molecule `O=C1/C(=C\c2ccc(OCCCO)cc2O)Oc2c1ccc(O)c2O` gave an IC50 in data set [1] of 2500 nM.

In turn, `CCCOc1ccc(/C=C2/Oc3c(ccc(O)c3O)C2=O)c(O)c1` registered an IC50 in data set [1] of 510 nM.

In data set [1], `O=C(O)c1ccccc1/C=C1/Oc2c(ccc(O)c2O)C1=O` showed an IC50 of 10700 nM. This IC50 is about 21-fold higher than that of the molecule before.

Consider `O=C1/C(=C\c2ccc(OCCCCO)cc2O)Oc2c1ccc(O)c2O`, for which the IC50 in data set [1] turned out to be 860 nM.

`CCCCCOc1ccc(/C=C2/Oc3c(ccc(O)c3O)C2=O)c(O)c1` registered an IC50 in data set [1] of 220 nM.

As to `O=C1/C(=C\c2ccccc2C(F)(F)F)Oc2c1ccc(O)c2O`, the IC50 in data set [1] came out at 17300 nM.

On to `Cc1ccc(/C=C2/Oc3c(ccc(O)c3O)C2=O)cc1`, for which the IC50 entry in data set [5] is “Not Active”.

Molecule `O=C(O)COc1ccccc1/C=C1/Oc2c(ccc(O)c2O)C1=O` registered an IC50 in data set [1] of 1800 nM.

`COc1cccc(/C=C2/Oc3c(ccc(O)c3O)C2=O)c1O` came in with an IC50 in data set [1] of 1700 nM.

Turning to `CN(C)c1ccc(/C=C2/Oc3c(ccc(O)c3O)C2=O)cc1`, half-maximal inhibition in data set [1] (IC50) required 25900 nM.

The molecule `CCCCOc1ccc(/C=C2/Oc3c(ccc(O)c3O)C2=O)c(O)c1` showed an IC50 in data set [1] of 450 nM. Compared with the last molecule, the IC50 is about 58-fold lower.

On to `COc1ccccc1/C=C1/Oc2c(ccc(O)c2O)C1=O`, for which the IC50 in data set [1] is greater than 60000 nM.

As to `N#CCCCOc1ccc(/C=C2/Oc3c(ccc(O)c3O)C2=O)c(O)c1`, half-maximal inhibition in data set [1] (IC50) was put at 1100 nM. That is a single-digit micromolar value.

As for `CCOc1ccc(/C=C2/Oc3c(ccc(O)c3O)C2=O)cc1`, the IC50 in data set [1] amounted to 5800 nM.

`Cc1ccccc1/C=C1/Oc2c(ccc(O)c2O)C1=O` returned an IC50 in data set [1] of 4000 nM. This IC50 and that of the molecule before are within 1.5-fold of each other.

The molecule `O=C1/C(=C\c2ccc(F)cc2)Oc2c1ccc(O)c2O` showed an IC50 in data set [1] greater than 60000 nM.

Molecule `O=C1/C(=C\c2ccc(OCc3ccccc3)cc2O)Oc2c1ccc(O)c2O` returned an IC50 in data set [1] of 1000 nM. This lies in the single-digit micromolar range.

In data set [1], `CC(C)COc1ccc(/C=C2/Oc3c(ccc(O)c3O)C2=O)c(O)c1` registered an IC50 of 580 nM.

For `CCCCCCOc1ccc(/C=C2/Oc3c(ccc(O)c3O)C2=O)c(O)c1`, half-maximal inhibition in data set [1] (IC50) was put at 320 nM.

In data set [1], `CCCCOc1ccc(/C=C2/Oc3c(ccc(O)c3O)C2=O)cc1` showed an IC50 of 1500 nM.

Consider `COc1ccc(/C=C2/Oc3c(ccc(O)c3O)C2=O)cc1`, for which, in data set [1], the IC50 was determined as 14300 nM.

In turn, `O=C(O)c1ccc(/C=C2/Oc3c(ccc(O)c3O)C2=O)cc1` came in with a half-inhibitory concentration (IC50) in data set [1] of 24000 nM.

With `N#Cc1ccc(/C=C2/Oc3c(ccc(O)c3O)C2=O)cc1`, in data set [5], the IC50 result is “Not Active”.

As for `O=C1/C(=C\c2ccc(O)cc2)Oc2c1ccc(O)c2O`, the midpoint of inhibition in data set [1], the IC50, lay at 15000 nM.

Regarding `O=C1/C(=C\c2ccccc2[N+](=O)[O-])Oc2c1ccc(O)c2O`, inhibition in data set [1] was half-maximal at 2000 nM (IC50). This IC50 is about 7.5-fold lower than that of the molecule before.

With `O=C1/C(=C\c2ccccc2O)Oc2c1ccc(O)c2O`, the IC50 in data set [1] worked out at 800 nM.

`O=C(O)COc1ccc(/C=C2/Oc3c(ccc(O)c3O)C2=O)c(O)c1` showed an IC50 in data set [1] of 2600 nM. This IC50 lies about 3.2-fold higher than the previous one.

B1: 3-phosphoshikimate 1-carboxyvinyltransferase (Escherichia coli K-12), P0A6D3 (protein)
chain: MESLTLQPIARVDGTINLPGSKSVSNRALLLAALAHGKTVLTNLLDSDDVRHMLNALTALGVSYTLSADRTRCEIIGNGGPLHAEGALELFLGNAGTAMRPLAAALCLGSNDIVLTGEPRMKERPIGHLVDALRLGGAKITYLEQENYPPLRLQGGFTGGNVDVDGSVSSQFLTALLMTAPLAPEDTVIRIKGDLVSKPYIDITLNLMKTFGVEIENQHYQQFVVKGGQSYQSPGTYLVEGDASSASYFLAAAAIKGGTVKVTGIGRNSMQGDIRFADVLEKMGATICWGDDYISCTRGELNAIDMDMNHIPDAAMTIATAALFAKGTTTLRNIYNWRVKETDRLFAMATELRKVGAEVEEGHDYIRITPPEKLNFAEIATYNDHRMAMCFSLVALSDTPVTILDPKCTAKTFPDYFEQLARISQAA
On to B1, for which, in data set [6], the Km stood at 30 µM.
